Measured values taken from patent publication US10294248B2, “Beta-lactamase inhibitors” (VenatoRx Pharmaceuticals, Inc., priority 2013, dated 2019).

Assays:
[1] = tested on: P. aeruginosa Ps296 expressing VIM-2; assay: Broth microdilution MIC, P. aeruginosa Ps296 VIM-2; format: cell-based; conditions: fixed 4 μg/mL meropenem; CAMHB, 16-20 hours at 37° C.
How it was run: (§1)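 Growth inhibition by test compound in presence of a fixed 4 μg/ml β-lactam; CLSI microdilution in CAMHB, visual endpoint after overnight 37° C incubation.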

[2] = molecular target: T1, p99 AmpC β-lactamase (Class C) (Enterobacter cloacae, UniProt P05364); assay: β-Lactamase inhibition, p99 AmpC; format: biochemical
T1 construct: made in house; host or cells: E. coli BL21(DE3)
T1 sequence (P05364 21-381): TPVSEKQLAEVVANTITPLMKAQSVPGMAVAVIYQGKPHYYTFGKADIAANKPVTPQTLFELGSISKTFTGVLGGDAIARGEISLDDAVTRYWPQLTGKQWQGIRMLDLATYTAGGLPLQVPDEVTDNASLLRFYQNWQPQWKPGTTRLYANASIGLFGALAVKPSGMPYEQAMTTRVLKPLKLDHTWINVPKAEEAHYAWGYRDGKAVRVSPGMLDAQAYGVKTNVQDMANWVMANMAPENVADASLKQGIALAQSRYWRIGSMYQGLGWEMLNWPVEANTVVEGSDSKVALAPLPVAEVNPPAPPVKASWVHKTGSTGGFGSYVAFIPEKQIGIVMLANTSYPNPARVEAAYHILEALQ

[3] = tested on: K. pneumoniae 156319 expressing KPC-3; assay: Broth microdilution MIC, K. pneumoniae 156319 KPC-3; format: cell-based; conditions: fixed 4 μg/mL meropenem; CAMHB, 16-20 hours at 37° C.
How it was run: as §1

[4] = tested on: E. cloacae 144200 expressing Class C P99 AmpC; assay: Broth microdilution MIC, E. cloacae 144200 p99 AmpC; format: cell-based; conditions: fixed 4 μg/mL ceftazidime; CAMHB, 16-20 hours at 37° C.
How it was run: as §1

[5] = molecular target: T2, VIM-2 metallo-β-lactamase (Class B) (Pseudomonas aeruginosa, UniProt Q9K2N0); assay: β-Lactamase inhibition, VIM-2; format: biochemical; conditions: nitrocefin 100 μM, 486 nm; 15 min preincubation at 37° C., PBS pH 7.4
T2 construct: made in house; host or cells: E. coli BL21(DE3)
How it was run: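 IC50 reflects the inhibitor concentration cutting the initial nitrocefin hydrolysis rate by half, compared with control wells lacking inhibitor. Substrate was used at 100 μM final after a 15 min, 37 °C enzyme–inhibitor preincubation.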

[6] = tested on: K. pneumoniae A-1797 expressing KPC-2 and VIM-4; assay: Broth microdilution MIC, K. pneumoniae A-1797 KPC-2/VIM-4; format: cell-based; conditions: fixed 4 μg/mL meropenem; CAMHB, 16-20 hours at 37° C.
How it was run: as §1

[7] = molecular target: T3, SHV-5 β-lactamase (Class A ESBL) (Klebsiella pneumoniae, UniProt P0A3M1); assay: β-Lactamase inhibition, SHV-5; format: biochemical
T3 construct: made in house; host or cells: E. coli BL21(DE3)
T3 sequence (P0A3M1 22-286): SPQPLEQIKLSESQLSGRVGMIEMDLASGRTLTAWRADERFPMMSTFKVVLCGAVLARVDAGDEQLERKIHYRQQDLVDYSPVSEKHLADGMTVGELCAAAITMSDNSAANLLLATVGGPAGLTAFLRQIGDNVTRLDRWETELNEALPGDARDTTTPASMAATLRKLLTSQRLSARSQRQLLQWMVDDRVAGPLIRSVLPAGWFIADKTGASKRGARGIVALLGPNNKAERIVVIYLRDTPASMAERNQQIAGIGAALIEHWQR
How it was run: (§2)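 Native untagged β-lactamases were expressed in E. coli BL21(DE3), then purified by cation exchange and gel filtration. Enzyme was preincubated with inhibitor for 15 min at 37 °C before substrate was added. Imipenem (A300) served KPC-2 and cefotaxime (A260) served SHV-5. IC50 was taken from initial hydrolysis rates relative to no-inhibitor controls.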

[8] = molecular target: T4, KPC-2 β-lactamase (Class A carbapenemase) (Klebsiella pneumoniae, UniProt Q9F663); assay: β-Lactamase inhibition, KPC-2; format: biochemical; conditions: imipenem substrate, 300 nm; 15 min preincubation at 37° C., PBS pH 7.4
T4 construct: made in house; host or cells: E. coli BL21(DE3)
T4 sequence (Q9F663 25-293, looked up): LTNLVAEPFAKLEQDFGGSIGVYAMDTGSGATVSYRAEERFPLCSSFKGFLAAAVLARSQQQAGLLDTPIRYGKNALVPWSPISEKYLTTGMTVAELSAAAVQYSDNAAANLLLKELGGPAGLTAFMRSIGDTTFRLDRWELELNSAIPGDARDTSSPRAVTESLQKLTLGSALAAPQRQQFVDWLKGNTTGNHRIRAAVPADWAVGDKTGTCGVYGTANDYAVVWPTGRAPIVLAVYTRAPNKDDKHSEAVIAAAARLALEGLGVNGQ
How it was run: as §2

[9] = tested on: S. aureus MSSA-7 producing penicillinase PC-1; assay: Broth microdilution MIC, S. aureus MSSA-7 PC-1; format: cell-based; conditions: fixed 4 μg/mL piperacillin; CAMHB, 16-20 hours at 37° C.
How it was run: as §1

[10] = tested on: E. coli ESBL4 expressing CTX-M-15; assay: Broth microdilution MIC, E. coli ESBL4 CTX-M-15; format: cell-based; conditions: fixed 4 μg/mL ceftazidime; CAMHB, 16-20 hours at 37° C.
How it was run: as §1

[11] = molecular target: T5, OXA-1 β-lactamase (Class D oxacillinase) (Escherichia coli, UniProt P13661); assay: β-Lactamase inhibition, OXA-1; format: biochemical; conditions: nitrocefin 100 μM, 486 nm; 15 min preincubation at 37° C., PBS pH 7.4
T5 construct: made in house; host or cells: E. coli BL21(DE3)
T5 sequence (P13661 26-276): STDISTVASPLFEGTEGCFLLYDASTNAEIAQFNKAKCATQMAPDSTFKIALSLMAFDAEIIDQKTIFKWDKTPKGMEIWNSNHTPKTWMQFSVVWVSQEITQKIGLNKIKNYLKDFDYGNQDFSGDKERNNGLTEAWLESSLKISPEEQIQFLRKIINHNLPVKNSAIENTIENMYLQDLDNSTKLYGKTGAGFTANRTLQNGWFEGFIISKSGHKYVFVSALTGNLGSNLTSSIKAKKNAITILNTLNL
How it was run: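 Untagged enzyme from E. coli BL21(DE3), purified by Capto S then Superdex 75; 15 min 37 °C preincubation with inhibitor; KPC-2 read with imipenem at 300 nm, SHV-5 with cefotaxime at 260 nm, OXA-1 with nitrocefin 100 μM final at 486 nm; 10 min kinetic read; IC50 vs uninhibited wells.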

SMILES	MIC of example compound in presence of fixed β-lactam: Fixed Mero, P. aerug. Ps296 VIM-2 [1]	IC50 [2] [nM]	MIC of example compound in presence of fixed β-lactam: Fixed Mero, K. P. 156319 KPC-3 [3]	MIC of example compound in presence of fixed β-lactam: Fixed CAZ, E. cl. 144200 p99 AmpC [4]	IC50 [5] [nM]	MIC of example compound in presence of fixed β-lactam: Fixed Mero, K. P. A-1797 KPC-2 VIM-4 [6]	IC50 [7] [nM]	IC50 [8] [nM]	MIC of example compound in presence of fixed β-lactam: Fixed Pip, S. aureus MSSA-7 PC-1 [9]	MIC of example compound in presence of fixed β-lactam: Fixed CAZ, E. coli ESBL4 CTX-M-15 [10]	IC50 [11] [nM]
CN(CC(=O)N[C@H]1Cc2cccc(C(=O)O)c2OB1O)C1CCNCC1 [Example 43, 2-Hydroxy-3-[2-(methyl-piperidin-4-yl-amino)-acetylamino]-3,4-dihydro-2H-benzo[e][1,2]oxaborinine-8-carboxylic acid]	C (the MIC in the presence of <4 μg/mL of a β-lactamase inhibitor)	< 100	C (the MIC in the presence of <4 μg/mL of a β-lactamase inhibitor)	C (the MIC in the presence of <4 μg/mL of a β-lactamase inhibitor)	100 to 1000	C (the MIC in the presence of <4 μg/mL of a β-lactamase inhibitor)	< 100	< 100	C (the MIC in the presence of <4 μg/mL of a β-lactamase inhibitor)	C (the MIC in the presence of <4 μg/mL of a β-lactamase inhibitor)	< 100
NCCN1CCN(CC(=O)N[C@H]2Cc3cccc(C(=O)O)c3OB2O)C(=O)C1 [Example 36, 3-{2-[4-(2-Amino-ethyl)-2-oxo-piperazin-1-yl]-acetylamino}-2-hydroxy-3,4-dihydro-2H-benzo[e][1,2]oxaborinine-8-carboxylic acid]	B (the MIC in the presence of between 8 and 32 μg/mL of a β-lactamase inhibitor)	< 100	B (the MIC in the presence of between 8 and 32 μg/mL of a β-lactamase inhibitor)	C (the MIC in the presence of <4 μg/mL of a β-lactamase inhibitor)	1000 to 10000	B (the MIC in the presence of between 8 and 32 μg/mL of a β-lactamase inhibitor)	< 100	100 to 1000	C (the MIC in the presence of <4 μg/mL of a β-lactamase inhibitor)	C (the MIC in the presence of <4 μg/mL of a β-lactamase inhibitor)	< 100
NC1CCN(CC(=O)N[C@H]2Cc3cccc(C(=O)O)c3OB2O)CC1O (stereo partly drawn) [Example 24, 3-[2-(4-Amino-3-hydroxy-piperidin-1-yl)-acetylamino]-2-hydroxy-3,4-dihydro-2H-benzo[e][1,2]oxaborinine-8-carboxylic acid]	B (the MIC in the presence of between 8 and 32 μg/mL of a β-lactamase inhibitor)	< 100	B (the MIC in the presence of between 8 and 32 μg/mL of a β-lactamase inhibitor)	C (the MIC in the presence of <4 μg/mL of a β-lactamase inhibitor)	10000 to 100000	B (the MIC in the presence of between 8 and 32 μg/mL of a β-lactamase inhibitor)	100 to 1000	100 to 1000	C (the MIC in the presence of <4 μg/mL of a β-lactamase inhibitor)	C (the MIC in the presence of <4 μg/mL of a β-lactamase inhibitor)	100 to 1000
O=C(O)c1cccc2c1OB(O)[C@@H](NC(=O)C1CNC1)C2 [Example 46, (R)-3-(azetidine-3-carboxamido)-2-hydroxy-3,4-dihydro-2H-benzo[e][1,2]oxaborinine-8-carboxylic acid]	A (an MIC of the fixed β-lactam antibiotic in the presence of >32 μg/mL of a β-lactamase inhibitor)	< 100	B (the MIC in the presence of between 8 and 32 μg/mL of a β-lactamase inhibitor)	C (the MIC in the presence of <4 μg/mL of a β-lactamase inhibitor)	1000 to 10000	A (an MIC of the fixed β-lactam antibiotic in the presence of >32 μg/mL of a β-lactamase inhibitor)	< 100	100 to 1000	C (the MIC in the presence of <4 μg/mL of a β-lactamase inhibitor)	C (the MIC in the presence of <4 μg/mL of a β-lactamase inhibitor)	100 to 1000
CN1CCC(C(=O)N[C@H]2Cc3cccc(C(=O)O)c3OB2O)(N(C)C)CC1 [Example 51, 3-[(4-Dimethylamino-1-methyl-piperidine-4-carbonyl)-amino]-2-hydroxy-3,4-dihydro-2H-benzo[e][1,2]oxaborinine-8-carboxylic acid]	C (the MIC in the presence of <4 μg/mL of a β-lactamase inhibitor)	< 100	C (the MIC in the presence of <4 μg/mL of a β-lactamase inhibitor)	C (the MIC in the presence of <4 μg/mL of a β-lactamase inhibitor)	1000 to 10000	A (an MIC of the fixed β-lactam antibiotic in the presence of >32 μg/mL of a β-lactamase inhibitor)	1000 to 10000	< 100	C (the MIC in the presence of <4 μg/mL of a β-lactamase inhibitor)	C (the MIC in the presence of <4 μg/mL of a β-lactamase inhibitor)	100 to 1000
N[C@@H]1CCCN(CC(=O)N[C@H]2Cc3cccc(C(=O)O)c3OB2O)C1 [Example 10, 3-[2-(R-3-Amino-piperidin-1-yl)-acetylamino]-2-hydroxy-3,4-dihydro-2H-benzo[e][1,2]oxaborinine-8-carboxylic acid]	A (an MIC of the fixed β-lactam antibiotic in the presence of >32 μg/mL of a β-lactamase inhibitor)	< 100	C (the MIC in the presence of <4 μg/mL of a β-lactamase inhibitor)	C (the MIC in the presence of <4 μg/mL of a β-lactamase inhibitor)	1000 to 10000	C (the MIC in the presence of <4 μg/mL of a β-lactamase inhibitor)	< 100	100 to 1000	B (the MIC in the presence of between 8 and 32 μg/mL of a β-lactamase inhibitor)	C (the MIC in the presence of <4 μg/mL of a β-lactamase inhibitor)	100 to 1000
